Experimental data taken from US12491178B2, “Stable pharmaceutical compositions of edaravone” (Slayback Pharma LLC, priority 2023, dated 2025).

Legend:
[1] = Solubility of edaravone in solubility enhancing agents; assay type: physicochemical
Source text: The table below, illustrates the best possible solubilizing agents that are utilized in the present invention.

[2] = cited from earlier work

Solubility ([1]; in Alcohol): 52.27 mg/gm
Solubility ([1]; in CCMG 400 LQ (Mixture of caprylocaproyl polyoxylglycerides)): 14.36 mg/gm
Solubility ([1]; in Capryol 90 (Propylene Glycol Monocaprylate)): 15.8 mg/gm
Solubility ([1]; in Capryol 90 + Ethanol (50:50)): 65.0 mg/gm
Solubility ([1]; in Castor Oil): 7.9 mg/gm
Solubility ([1]; in Castor oil + Ethanol (50:50)): 72.2 mg/gm
Solubility ([1]; in Cotton seed oil): 2.1 mg/gm
Solubility ([1]; in Imwitor 988 (Ester of caprylic acid and glycerol)): 13.59 mg/gm
Solubility ([1]; in Kollisolv MCT 70): 8.61 mg/gm
Solubility ([1]; in Labrafil M 1944 (Oleoyl polyoxyl-6 glycerides)): 6.9 mg/gm
Solubility ([1]; in Labrafil M 2125 (Linoleoyl Polyoxyl-6 glycerides)): 9.10 mg/gm
Solubility ([1]; in Labrasol ALF (Caprylocaproyl Polyoxyl-8 glycerides), edaravone dissolved per gram of agent): 25.1 mg/gm
Solubility ([1]; in Labrasol ALF + Ethanol (50:50)): 78.8 mg/gm
Solubility ([1]; in Lauroglycol 90 (Propylene glycol monolaurate)): 8.1 mg/gm
Solubility ([1]; in Miglyol 812 (Triester of caprylic and capric acid)): 11.26 mg/gm
Solubility ([1]; in PEG 300 (polyethylene glycol)): 26.4 mg/gm
Solubility ([1]; in PEG 300 + Ethanol (50:50)): 66.3 mg/gm
Solubility ([1]; in Peanut oil): 1.7 mg/gm
Solubility ([1]; in Peppermint Oil): 37.6 mg/gm
Solubility ([1]; in Peppermint Oil + Ethanol (50:50)): 72.8 mg/gm
Solubility ([1]; in Polysorbate 20): 17.7 mg/gm
SMILES: CC1=NN(c2ccccc2)C(=O)C1 [edaravone, 3-methy-1-phenyl-2-pyrazolin-5-one]
oral bioavailability (Fabs) [2]: 5.23%
